The structures appear in SMILES notation.

Series [1] deals with T1, human PDE5 (Homo sapiens, UniProt O76074).
T1 construct: made in house; host or cells: Saccharomyces cerevisiae protease-deficient strain BJ2-54 (ATCC 74465)
The experiment in a line: PDE5 enzyme inhibition, IC50 determination. In kind it is biochemical.

Series [2] has as its target T2, Bovine PDE6 (Bos taurus, UniProt P11541+P23439).
T2 construct: Hypotonic extracts were prepared by suspending isolated ROS; tissue Dr. N. Virmaux, INSERM U338, Strasbourg; host or cells: bovine retina, rod outer segment hypotonic extract
T2 sequence (P11541 2-856 limits assumed): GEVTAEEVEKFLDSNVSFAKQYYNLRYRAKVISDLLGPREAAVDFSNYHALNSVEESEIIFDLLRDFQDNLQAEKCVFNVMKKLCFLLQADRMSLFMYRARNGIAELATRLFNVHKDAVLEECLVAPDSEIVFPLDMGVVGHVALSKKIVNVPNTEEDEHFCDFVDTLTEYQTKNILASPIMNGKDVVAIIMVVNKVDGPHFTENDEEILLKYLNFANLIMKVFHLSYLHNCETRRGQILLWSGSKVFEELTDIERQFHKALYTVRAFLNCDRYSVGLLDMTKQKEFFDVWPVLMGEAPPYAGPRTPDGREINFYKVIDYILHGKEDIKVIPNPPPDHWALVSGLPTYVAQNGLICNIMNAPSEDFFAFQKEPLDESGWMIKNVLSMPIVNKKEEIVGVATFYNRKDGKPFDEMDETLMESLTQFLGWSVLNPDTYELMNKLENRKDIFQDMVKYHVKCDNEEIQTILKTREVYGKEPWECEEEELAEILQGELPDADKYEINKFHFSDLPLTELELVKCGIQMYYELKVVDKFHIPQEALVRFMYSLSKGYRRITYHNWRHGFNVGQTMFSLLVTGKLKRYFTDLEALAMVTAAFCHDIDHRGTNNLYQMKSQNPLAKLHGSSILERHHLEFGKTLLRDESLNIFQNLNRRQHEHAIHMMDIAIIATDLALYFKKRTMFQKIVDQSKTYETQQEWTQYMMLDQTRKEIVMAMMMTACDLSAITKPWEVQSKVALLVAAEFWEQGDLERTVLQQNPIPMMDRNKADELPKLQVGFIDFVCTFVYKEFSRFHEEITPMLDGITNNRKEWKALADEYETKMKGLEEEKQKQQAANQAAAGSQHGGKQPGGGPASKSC
T2 sequence (P23439 2-850 limits assumed): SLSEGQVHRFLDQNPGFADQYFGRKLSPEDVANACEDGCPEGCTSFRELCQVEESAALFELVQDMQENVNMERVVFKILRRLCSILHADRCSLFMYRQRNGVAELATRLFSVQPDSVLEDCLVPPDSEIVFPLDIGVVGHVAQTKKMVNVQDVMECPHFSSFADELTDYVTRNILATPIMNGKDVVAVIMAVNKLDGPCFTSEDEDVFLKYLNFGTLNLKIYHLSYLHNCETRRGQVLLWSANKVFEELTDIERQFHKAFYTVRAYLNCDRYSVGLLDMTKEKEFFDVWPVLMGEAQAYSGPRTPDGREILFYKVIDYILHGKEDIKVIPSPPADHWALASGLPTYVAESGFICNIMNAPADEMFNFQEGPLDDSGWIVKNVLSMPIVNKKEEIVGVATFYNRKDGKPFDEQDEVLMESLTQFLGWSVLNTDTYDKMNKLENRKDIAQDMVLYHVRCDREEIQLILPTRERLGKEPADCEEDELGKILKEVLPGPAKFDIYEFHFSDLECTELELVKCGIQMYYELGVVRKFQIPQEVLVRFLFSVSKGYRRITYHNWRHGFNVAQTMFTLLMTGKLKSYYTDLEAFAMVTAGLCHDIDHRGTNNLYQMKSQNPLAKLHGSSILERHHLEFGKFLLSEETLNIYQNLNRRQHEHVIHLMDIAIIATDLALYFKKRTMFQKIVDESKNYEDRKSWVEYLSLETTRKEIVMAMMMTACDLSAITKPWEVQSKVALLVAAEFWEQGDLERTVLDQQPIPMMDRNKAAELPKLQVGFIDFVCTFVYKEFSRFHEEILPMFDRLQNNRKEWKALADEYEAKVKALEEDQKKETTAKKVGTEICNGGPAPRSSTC
T2 sequence (P04972 1-87 partner): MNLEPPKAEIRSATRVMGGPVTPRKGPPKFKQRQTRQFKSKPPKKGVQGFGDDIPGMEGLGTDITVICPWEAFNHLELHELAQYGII
The experiment in a line: PDE6 enzyme inhibition, IC50 determination. Particulars: for PDE6/PDE5: ratio of IC50 versus PDE6 to IC50 versus PDE5. In kind it is biochemical. How it is done:
Bovine PDE6 was supplied by Dr. N. Virmaux, INSERM U338, Strasbourg. Bovine retinas were prepared as described by Virmaux et al., FEBS Letters, 12(6), pp. 325-328 (1971) and see also, A. Sitaramayya et al., Exp. Eye Res., 25, pp. 163-169 (1977). Briefly, unless stated otherwise, all operations were done in the cold and in dim red light. Eyes were kept in the cold and in the dark for up to four hours after slaughtering.
Preparation of bovine retinal outer segment (ROS) basically followed procedures described by Schichi et al., J. Biol. Chem., 224:529 (1969). In a typical experiment, 35 bovine retinas were ground in a mortar with 35 mL 0.066 M phosphate buffer, pH 7.0, made up to 40% with sucrose, followed by homogenization in a Potter homogenizer (20 up and down strokes). The suspension was centrifuged at 25,000×g for 20 minutes. The pellet was homogenized in 7.5 mL 0.006 M phosphate buffer (40% in sucrose), and carefully layered under 7.5 mL of phosphate buffer (containing no sucrose). Centrifugation was conducted in a swing-out rotor at 45,000×g for 20 minutes, and produced a pellet which is black at the bottom, and also a red band at the interface 0.066 M. phosphate—40% sucrose/0.066 M phosphate (crude ROS). The red material at the interface was removed, diluted with phosphate buffer, spun down to a pellet, and redistributed in buffered 40% sucrose as described above. This procedure was repeated 2 or 3 times until no pellet was formed. The purified ROS was washed in phosphate buffer and finally spun down to a pellet at 25,000×g for 20 minutes. All materials were then kept frozen until used.
Hypotonic extracts were prepared by suspending isolated ROS in 10 mM Tris-Cl pH 7.5, 1 mM EDTA, and 1 mM dithioerythritol, followed by centrifugation at 100,000×g for 30 minutes.
The preparation was reported to have a specific activity of about 35 nmoles cGMP hydrolyzed per minute per milligram protein.
Biophys. Acta, 384:430 (1975).

The test system of series [3] is PDE3. Particulars: package insert; cited from earlier work.
Series [4] concerns patients taking organic nitrates. The conditions noted are these: in combination with organic nitrates; cited from earlier work.
Series [5] relates to PDE4. Particulars: package insert; cited from earlier work.
Series [6] concerns the target PDE2 (Homo sapiens, UniProt O00408). Particulars: package insert; cited from earlier work.
In series [7] the test system is PDE1. The conditions noted are these: package insert; cited from earlier work.

Sequence of PDE2 (O00408 whole entry): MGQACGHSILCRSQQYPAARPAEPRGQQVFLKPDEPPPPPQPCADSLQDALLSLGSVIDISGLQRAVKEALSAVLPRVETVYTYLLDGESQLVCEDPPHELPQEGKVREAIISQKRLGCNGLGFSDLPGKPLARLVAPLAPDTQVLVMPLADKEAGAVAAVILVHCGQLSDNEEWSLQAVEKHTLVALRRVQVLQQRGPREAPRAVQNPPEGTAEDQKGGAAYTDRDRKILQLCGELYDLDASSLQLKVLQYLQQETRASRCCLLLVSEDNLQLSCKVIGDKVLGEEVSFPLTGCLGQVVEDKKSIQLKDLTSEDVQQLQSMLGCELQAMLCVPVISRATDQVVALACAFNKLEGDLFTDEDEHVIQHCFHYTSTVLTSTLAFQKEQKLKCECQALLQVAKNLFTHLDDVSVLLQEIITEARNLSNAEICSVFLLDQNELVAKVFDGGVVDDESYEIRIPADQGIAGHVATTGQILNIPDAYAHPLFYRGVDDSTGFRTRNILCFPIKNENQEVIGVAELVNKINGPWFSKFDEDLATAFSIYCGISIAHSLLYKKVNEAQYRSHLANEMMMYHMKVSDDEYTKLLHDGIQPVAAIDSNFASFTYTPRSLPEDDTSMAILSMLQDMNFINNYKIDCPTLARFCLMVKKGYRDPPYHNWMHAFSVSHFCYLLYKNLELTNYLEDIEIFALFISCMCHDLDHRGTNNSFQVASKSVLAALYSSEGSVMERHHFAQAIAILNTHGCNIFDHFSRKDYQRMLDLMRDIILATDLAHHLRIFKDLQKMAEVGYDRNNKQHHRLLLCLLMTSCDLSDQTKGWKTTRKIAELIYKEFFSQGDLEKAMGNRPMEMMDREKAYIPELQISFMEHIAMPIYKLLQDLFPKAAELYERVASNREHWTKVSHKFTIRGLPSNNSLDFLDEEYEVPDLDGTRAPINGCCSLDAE

By IC50 is commonly meant the point on the concentration scale where inhibition reaches its midpoint. Low readings indicate higher potency, high ones lower potency. In series [1], `O=C1C2Cc3c([nH]c4ccccc34)C(c3ccc4c(c3)OCO4)N2C(=O)CN1Cc1ccc(NS(=O)(=O)C(F)(F)F)cc1` (centres unmarked) [Compound 1] had an IC50 of 5 nM. For the same molecule, in series [2], the IC50 turned out to be 663 nM and the PDE6/PDE5 was 133.

The molecule `O=C1C2Cc3c([nH]c4ccccc34)C(c3ccc4c(c3)OCO4)N2C(=O)CN1Cc1cccc(NS(=O)(=O)C(F)(F)F)c1` (centres unmarked) [Compound 3] registered a 50% inhibitory concentration (IC50) in series [1] of 2 nM. In addition, in series [2], 420 nM corresponded to half-maximal inhibition (IC50) and the PDE6/PDE5 came to 210.

Consider `CC1NC(=O)C2Cc3c([nH]c4ccccc34)C(c3ccc4c(c3)OCO4)N2C1=O` (centres unmarked) [Compound 4], for which 5 nM corresponded to half-maximal inhibition in series [1] (IC50). Further, in series [2], half-maximal inhibition (IC50) was put at 729 nM and the PDE6/PDE5 was 146.

Take `CCCc1nn(C)c2c(=O)[nH]c(-c3cc(S(=O)(=O)N4CCN(C)CC4)ccc3OCC)nc12` [sildenafil]: the “more potent inhibitor of PDE5 than PDE3” value in series [3] is given as “greater than 1,000 fold”. The “effect on hypotensive effects of nitrates” value in series [4] is on record as “potentiates the hypotensive effects of nitrates”. The “more potent inhibitor of PDE5 than PDE4” value in series [5] is “greater than 1,000 fold”. Moreover, the “more potent inhibitor of PDE5 than PDE2” value in series [6] is “greater than 1,000 fold”. In addition, the “more potent inhibitor of PDE5 than PDE1” value in series [7] was “greater than 80 fold”.

(Values after patent US6451807B1, “Methods of treating sexual dysfunction in an individual suffering from a retinal disease, class 1 congestive heart failure, or myocardial infarction using a PDE5 inhibitor” (Lilly Icos, LLC., priority 1999, dated 2002).)
